Four molecules from publication PMC8550792, “Evolution of kinase polypharmacology across HSP90 drug discovery” (Cell Chemical Biology, 2021) can be followed below.

Assay in all cases: biochemical
Holding throughout (assay type): biochemical

In test [1] the target is T1, 382 unique human kinases (Homo sapiens, UniProt P48729).
T1 construct: purchased Reaction Biology (HotSpot contract assay)
The following applies: kinase CK1a1, compound 10 uM; for remaining activity at 10 µM: read-out: % Enzyme Activity (relative to DMSO controls).

The target of test [2] is T2, 382 unique human kinases (Homo sapiens, UniProt Q00537).
T2 construct: purchased Reaction Biology (HotSpot contract assay)
The conditions noted are these: kinase CDK17/cyclin Y (PCTK2), compound 10 uM; for remaining activity at 10 µM: read-out: % Enzyme Activity (relative to DMSO controls).

Test [3] has as its target T3, 382 unique human kinases (Homo sapiens, UniProt Q9Y3S1).
T3 construct: purchased Reaction Biology (HotSpot contract assay)
The conditions noted are these: WNK2, 10 uM; for remaining activity at 10 µM: read-out: % Enzyme Activity (relative to DMSO controls).

In test [4] the target is T4, 382 unique human kinases (Homo sapiens, UniProt O00418).
T4 construct: purchased Reaction Biology (HotSpot contract assay)
T4 sequence (O00418 1-725): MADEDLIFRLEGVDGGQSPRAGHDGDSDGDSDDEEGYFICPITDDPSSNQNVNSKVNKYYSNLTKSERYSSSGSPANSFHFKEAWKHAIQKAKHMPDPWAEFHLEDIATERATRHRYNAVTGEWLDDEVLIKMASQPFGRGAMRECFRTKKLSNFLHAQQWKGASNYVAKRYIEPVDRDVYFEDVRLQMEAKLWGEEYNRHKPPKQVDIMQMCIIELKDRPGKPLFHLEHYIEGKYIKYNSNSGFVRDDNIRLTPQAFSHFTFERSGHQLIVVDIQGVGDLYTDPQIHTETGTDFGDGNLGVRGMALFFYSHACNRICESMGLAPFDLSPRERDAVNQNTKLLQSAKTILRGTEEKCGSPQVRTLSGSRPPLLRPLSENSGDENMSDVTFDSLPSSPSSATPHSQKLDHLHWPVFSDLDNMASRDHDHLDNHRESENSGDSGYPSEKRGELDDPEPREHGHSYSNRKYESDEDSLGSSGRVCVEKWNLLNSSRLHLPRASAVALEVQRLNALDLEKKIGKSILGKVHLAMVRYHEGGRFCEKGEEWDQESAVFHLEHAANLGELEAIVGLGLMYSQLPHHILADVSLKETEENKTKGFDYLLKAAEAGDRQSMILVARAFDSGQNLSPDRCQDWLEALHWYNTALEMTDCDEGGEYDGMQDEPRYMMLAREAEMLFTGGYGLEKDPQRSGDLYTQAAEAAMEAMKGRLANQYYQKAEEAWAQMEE
The conditions noted are these: kinase EEF2K, compound 10 uM; for remaining activity at 10 µM: read-out: % Enzyme Activity (relative to DMSO controls).

The target of test [5] is T5, 382 unique human kinases (Homo sapiens, UniProt Q16288).
T5 construct: purchased Reaction Biology (HotSpot contract assay)
The conditions noted are these: TRKC, [ATP] 100 µM.

In test [6] the target is T6, 382 unique human kinases (Homo sapiens, UniProt P54756).
T6 construct: purchased Reaction Biology (HotSpot contract assay)
The following applies: EPHA5, [ATP] 30 µM, compound 10 uM; for remaining activity at 10 µM: read-out: % Enzyme Activity (relative to DMSO controls).

In test [7] the target is T7, 382 unique human kinases (Homo sapiens, UniProt O95819).
T7 construct: purchased Reaction Biology (HotSpot contract assay)
The following applies: HGK/MAP4K4, 10 uM; for remaining activity at 10 µM: read-out: % Enzyme Activity (relative to DMSO controls).

The target in test [8] is T8, 382 unique human kinases (Homo sapiens, UniProt Q02763, Y897S).
T8 construct: purchased Reaction Biology (HotSpot contract assay)
The following applies: TIE2 (Y897S), 10 uM; for remaining activity at 10 µM: read-out: % Enzyme Activity (relative to DMSO controls).

Test [9] has as its target T9, 382 unique human kinases (Homo sapiens, UniProt P36896).
T9 construct: purchased Reaction Biology (HotSpot contract assay)
T9 sequence (P36896 24-505): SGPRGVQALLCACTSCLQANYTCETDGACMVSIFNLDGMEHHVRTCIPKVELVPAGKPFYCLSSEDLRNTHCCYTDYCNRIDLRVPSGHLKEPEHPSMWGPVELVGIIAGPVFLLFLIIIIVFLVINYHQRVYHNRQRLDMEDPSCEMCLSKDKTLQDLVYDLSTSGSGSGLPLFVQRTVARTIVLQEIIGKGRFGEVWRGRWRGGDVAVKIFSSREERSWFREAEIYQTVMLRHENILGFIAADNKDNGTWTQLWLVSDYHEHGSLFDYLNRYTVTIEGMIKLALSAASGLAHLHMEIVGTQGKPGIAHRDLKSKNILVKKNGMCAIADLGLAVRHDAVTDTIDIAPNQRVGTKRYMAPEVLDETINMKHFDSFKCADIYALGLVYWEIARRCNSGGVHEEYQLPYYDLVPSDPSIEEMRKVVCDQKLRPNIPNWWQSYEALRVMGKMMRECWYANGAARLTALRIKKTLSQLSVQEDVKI
The conditions noted are these: ALK4/ACVR1B, 10 uM; for remaining activity at 10 µM: read-out: % Enzyme Activity (relative to DMSO controls).

Test [10] concerns the target T10, 382 unique human kinases (Homo sapiens, UniProt Q9BYP7).
T10 construct: purchased Reaction Biology (HotSpot contract assay)
The following applies: WNK3, 10 uM; for remaining activity at 10 µM: read-out: % Enzyme Activity (relative to DMSO controls).

Test [11] deals with T11, 382 unique human kinases (Homo sapiens, UniProt P43250).
T11 construct: purchased Reaction Biology (HotSpot contract assay)
The following applies: GRK6, 10 uM; for remaining activity at 10 µM: read-out: % Enzyme Activity (relative to DMSO controls).

Setting [12] is: compound 10 uM, read-out: % Enzyme Activity (relative to DMSO controls).

T11 sequence (P43250 whole entry): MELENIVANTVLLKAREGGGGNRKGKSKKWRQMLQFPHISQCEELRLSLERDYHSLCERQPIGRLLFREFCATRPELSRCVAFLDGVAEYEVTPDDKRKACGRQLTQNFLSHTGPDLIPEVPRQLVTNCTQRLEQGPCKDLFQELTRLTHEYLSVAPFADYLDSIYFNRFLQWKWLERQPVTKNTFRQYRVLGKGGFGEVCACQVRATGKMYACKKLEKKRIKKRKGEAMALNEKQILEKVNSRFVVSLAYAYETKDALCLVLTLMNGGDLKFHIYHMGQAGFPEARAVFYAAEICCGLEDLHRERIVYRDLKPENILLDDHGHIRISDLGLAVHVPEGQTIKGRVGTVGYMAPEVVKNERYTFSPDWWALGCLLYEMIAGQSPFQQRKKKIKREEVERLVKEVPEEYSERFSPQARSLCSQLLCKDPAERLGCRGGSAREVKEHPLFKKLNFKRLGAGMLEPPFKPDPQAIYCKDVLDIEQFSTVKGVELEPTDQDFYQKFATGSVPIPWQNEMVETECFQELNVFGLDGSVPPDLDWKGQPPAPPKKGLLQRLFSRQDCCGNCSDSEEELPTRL
T5 sequence (Q16288 32-839): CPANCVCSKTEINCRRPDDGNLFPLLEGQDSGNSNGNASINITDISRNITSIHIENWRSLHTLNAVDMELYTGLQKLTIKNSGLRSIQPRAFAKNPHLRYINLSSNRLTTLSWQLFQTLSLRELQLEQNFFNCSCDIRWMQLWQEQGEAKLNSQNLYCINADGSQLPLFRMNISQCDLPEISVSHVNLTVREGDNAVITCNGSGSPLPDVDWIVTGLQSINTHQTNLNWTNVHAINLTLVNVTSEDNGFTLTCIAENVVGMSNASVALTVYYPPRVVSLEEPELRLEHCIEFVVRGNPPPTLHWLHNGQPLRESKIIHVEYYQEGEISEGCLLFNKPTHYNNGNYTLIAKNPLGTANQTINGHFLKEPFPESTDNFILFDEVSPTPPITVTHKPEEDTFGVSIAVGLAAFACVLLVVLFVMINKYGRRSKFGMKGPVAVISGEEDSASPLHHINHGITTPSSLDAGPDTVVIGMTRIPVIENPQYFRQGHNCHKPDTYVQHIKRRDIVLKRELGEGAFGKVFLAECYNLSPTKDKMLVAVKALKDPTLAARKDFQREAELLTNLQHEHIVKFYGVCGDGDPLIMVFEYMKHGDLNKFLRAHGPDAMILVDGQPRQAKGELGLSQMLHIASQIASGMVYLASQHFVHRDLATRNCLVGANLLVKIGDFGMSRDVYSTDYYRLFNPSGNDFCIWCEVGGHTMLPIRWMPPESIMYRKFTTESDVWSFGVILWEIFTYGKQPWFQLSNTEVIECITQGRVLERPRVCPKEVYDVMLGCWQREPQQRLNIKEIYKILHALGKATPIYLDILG
T1 sequence (P48729 whole entry): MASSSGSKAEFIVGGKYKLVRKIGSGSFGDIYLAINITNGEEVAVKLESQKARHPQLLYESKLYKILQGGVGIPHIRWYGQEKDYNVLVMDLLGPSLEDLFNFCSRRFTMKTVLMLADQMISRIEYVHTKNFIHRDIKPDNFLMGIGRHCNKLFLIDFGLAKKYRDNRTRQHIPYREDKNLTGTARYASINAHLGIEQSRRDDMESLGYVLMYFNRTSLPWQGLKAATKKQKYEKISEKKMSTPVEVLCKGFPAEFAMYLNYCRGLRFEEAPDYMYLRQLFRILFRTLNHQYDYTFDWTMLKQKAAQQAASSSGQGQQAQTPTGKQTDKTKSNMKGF
T8 sequence (Q02763 23-1124 Y897S): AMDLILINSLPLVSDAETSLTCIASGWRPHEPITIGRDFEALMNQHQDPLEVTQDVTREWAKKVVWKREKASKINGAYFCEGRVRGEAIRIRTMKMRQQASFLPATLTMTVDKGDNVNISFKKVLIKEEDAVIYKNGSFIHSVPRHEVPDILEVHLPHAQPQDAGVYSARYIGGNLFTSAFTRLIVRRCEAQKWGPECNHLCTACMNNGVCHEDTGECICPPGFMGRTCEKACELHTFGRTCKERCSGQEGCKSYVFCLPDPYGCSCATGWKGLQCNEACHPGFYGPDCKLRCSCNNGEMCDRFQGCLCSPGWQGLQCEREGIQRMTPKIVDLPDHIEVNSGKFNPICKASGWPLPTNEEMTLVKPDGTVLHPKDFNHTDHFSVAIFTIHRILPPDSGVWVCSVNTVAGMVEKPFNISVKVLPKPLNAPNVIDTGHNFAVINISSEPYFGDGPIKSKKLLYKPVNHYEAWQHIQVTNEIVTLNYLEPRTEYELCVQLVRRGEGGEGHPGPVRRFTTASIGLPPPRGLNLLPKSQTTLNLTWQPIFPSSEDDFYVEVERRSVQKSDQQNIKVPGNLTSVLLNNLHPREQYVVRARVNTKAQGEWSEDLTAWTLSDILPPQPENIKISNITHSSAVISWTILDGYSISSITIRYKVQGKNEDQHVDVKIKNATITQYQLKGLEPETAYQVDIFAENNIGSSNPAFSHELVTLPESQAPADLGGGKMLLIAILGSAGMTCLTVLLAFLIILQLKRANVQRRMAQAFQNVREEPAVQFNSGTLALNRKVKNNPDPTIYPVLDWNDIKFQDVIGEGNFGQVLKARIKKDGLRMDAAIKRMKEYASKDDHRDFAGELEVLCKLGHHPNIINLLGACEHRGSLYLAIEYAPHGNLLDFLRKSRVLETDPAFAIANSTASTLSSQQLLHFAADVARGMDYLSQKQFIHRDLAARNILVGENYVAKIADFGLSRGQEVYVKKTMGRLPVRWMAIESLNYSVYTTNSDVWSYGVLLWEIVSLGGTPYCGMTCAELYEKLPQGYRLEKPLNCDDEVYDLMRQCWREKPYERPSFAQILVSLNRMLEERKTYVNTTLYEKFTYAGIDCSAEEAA
T7 sequence (O95819 whole entry): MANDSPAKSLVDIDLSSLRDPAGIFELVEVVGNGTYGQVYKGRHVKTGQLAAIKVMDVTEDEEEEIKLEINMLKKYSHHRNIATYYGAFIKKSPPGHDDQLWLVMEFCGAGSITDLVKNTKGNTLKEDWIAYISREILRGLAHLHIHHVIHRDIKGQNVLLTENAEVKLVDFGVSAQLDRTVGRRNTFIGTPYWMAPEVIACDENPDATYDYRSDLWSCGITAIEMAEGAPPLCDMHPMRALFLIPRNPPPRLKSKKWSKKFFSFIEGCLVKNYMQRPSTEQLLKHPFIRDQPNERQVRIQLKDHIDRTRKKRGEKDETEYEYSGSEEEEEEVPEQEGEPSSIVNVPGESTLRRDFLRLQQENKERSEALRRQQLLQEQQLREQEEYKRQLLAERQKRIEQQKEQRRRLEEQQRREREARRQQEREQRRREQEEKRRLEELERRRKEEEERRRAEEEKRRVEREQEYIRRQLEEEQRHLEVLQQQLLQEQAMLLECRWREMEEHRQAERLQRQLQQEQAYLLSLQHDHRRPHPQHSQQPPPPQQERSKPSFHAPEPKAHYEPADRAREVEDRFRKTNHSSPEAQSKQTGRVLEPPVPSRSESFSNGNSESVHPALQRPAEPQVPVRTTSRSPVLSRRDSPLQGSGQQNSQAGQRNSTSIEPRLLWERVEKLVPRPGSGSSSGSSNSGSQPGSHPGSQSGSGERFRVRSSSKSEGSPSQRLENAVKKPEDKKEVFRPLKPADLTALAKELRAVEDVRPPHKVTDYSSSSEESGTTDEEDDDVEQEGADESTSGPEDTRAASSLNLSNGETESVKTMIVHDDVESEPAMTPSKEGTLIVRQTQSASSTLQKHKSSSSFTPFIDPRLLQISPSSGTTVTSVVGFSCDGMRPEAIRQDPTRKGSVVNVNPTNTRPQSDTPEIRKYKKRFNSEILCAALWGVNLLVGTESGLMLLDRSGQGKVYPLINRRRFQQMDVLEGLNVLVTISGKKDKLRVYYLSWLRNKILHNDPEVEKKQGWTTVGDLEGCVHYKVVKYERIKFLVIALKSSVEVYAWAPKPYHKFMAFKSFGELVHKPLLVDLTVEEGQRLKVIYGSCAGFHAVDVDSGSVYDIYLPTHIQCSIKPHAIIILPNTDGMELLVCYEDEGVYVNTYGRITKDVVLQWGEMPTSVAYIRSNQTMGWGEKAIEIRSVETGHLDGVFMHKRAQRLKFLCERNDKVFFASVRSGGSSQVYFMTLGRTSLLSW
T6 sequence (P54756 25-1037): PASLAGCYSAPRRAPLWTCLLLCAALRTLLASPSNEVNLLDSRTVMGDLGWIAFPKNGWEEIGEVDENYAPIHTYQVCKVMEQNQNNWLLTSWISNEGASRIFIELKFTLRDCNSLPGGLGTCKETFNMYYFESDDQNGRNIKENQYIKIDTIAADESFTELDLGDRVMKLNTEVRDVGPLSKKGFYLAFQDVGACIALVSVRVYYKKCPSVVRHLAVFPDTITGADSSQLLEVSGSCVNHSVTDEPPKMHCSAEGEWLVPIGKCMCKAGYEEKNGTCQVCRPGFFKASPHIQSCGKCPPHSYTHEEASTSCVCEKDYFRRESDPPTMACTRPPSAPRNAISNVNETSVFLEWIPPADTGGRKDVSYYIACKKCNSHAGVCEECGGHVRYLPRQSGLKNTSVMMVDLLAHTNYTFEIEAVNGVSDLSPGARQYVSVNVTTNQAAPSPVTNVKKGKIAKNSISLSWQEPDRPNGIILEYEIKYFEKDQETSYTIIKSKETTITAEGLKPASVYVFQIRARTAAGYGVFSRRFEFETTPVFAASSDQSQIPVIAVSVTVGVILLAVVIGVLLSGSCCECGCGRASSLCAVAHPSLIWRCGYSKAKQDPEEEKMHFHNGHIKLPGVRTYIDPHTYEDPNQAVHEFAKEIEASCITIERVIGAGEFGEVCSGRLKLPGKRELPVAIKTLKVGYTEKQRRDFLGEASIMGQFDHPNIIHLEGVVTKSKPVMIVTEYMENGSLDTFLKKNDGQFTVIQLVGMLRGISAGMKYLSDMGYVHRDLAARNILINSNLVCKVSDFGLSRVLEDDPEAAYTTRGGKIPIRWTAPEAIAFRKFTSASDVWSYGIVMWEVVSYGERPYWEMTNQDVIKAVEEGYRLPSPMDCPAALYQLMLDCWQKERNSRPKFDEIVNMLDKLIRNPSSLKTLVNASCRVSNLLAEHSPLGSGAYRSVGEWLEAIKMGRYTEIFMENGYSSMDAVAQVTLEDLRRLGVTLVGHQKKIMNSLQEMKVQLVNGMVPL

Turning to `CC(C)c1cc(-c2n[nH]c(=O)n2-c2ccc3c(ccn3C)c2)c(O)cc1O` [Ganetespib (STA9090)], the remaining activity at 10 µM worked out at 84.4% at 382 unique human kinases [1], 86.5% at 382 unique human kinases [2], 59.5% at 382 unique human kinases [3] and 89.2% on 382 unique human kinases [4].

In the case of `CC(C)c1cc(-c2n[nH]c(=O)n2-c2ccc3c(ccn3C)c2)c(O)cc1O` [Ganetespib], the remaining activity at 1 µM at 382 unique human kinases [5] (compound 1 uM, read-out: % Enzyme Activity (relative to DMSO controls)) worked out at 30.6%. In addition, the remaining activity at 10 µM at 382 unique human kinases [5] (setting [12]) is 7.62%; on 382 unique human kinases [6] it was 55.6%; at 382 unique human kinases [7], 98.6%; on 382 unique human kinases [8], 98.7%; on 382 unique human kinases [9], 111%; on 382 unique human kinases [10], 98.1%. Further, on 382 unique human kinases [11], the remaining activity at 10 µM amounted to 97.2%.

On to `CCNC(=O)c1noc(-c2cc(C(C)C)c(O)cc2O)c1-c1ccc(CN2CCOCC2)cc1` [Luminespib (AUY-922)], for which the “% Enzyme Activity (relative to DMSO controls)” value at 382 unique human kinases [1] worked out at 96.26%; on 382 unique human kinases [2], 80.06%; on 382 unique human kinases [3], 106.80%; at 382 unique human kinases [4] it was 102.88%. Further, the remaining activity at 10 µM on 382 unique human kinases [1] worked out at 101%; on 382 unique human kinases [2], 80.7%; on 382 unique human kinases [3], 107%; at 382 unique human kinases [4] it was 105%.

Consider `CCNC(=O)c1noc(-c2cc(C(C)C)c(O)cc2O)c1-c1ccc(CN2CCOCC2)cc1` [Luminespib], for which the “% Enzyme Activity (relative to DMSO controls)” value was 94.48% on 382 unique human kinases [5] (compound 10 uM); 78.40% at 382 unique human kinases [6]; 108.63% on 382 unique human kinases [7]; 116.81% on 382 unique human kinases [8]; 94.12% on 382 unique human kinases [9]; 110.27% at 382 unique human kinases [10]. On 382 unique human kinases [11], the “% Enzyme Activity (relative to DMSO controls)” value is listed as 96.43%. The remaining activity at 10 µM worked out at 96.8% at 382 unique human kinases [5] (setting [12]); 79.4% on 382 unique human kinases [6]; 110% on 382 unique human kinases [7]; 117% on 382 unique human kinases [8]; 95% at 382 unique human kinases [9]; 112% at 382 unique human kinases [10]. Moreover, at 382 unique human kinases [11], the remaining activity at 10 µM came out at 97.2%.
